Patent publication US4605744A, “Imidazole derivatives” (Hoffmann-La Roche Inc., priority 1985, dated 1986)
Counter-ions that a name gives are not always drawn. Like-named read-outs stand apart in the source and are kept apart here.

Assays:
Test in all cases: In vitro antibacterial activity (MIC)
Type in all cases: cell-based
C. freundii CDC6 = settings: Citrobacter freundii, CDC6, C. freundii CDC6; read-out: MIC
Protocol: (§1) Drug dilutions are prepared in Mueller-Hinton broth ranging from 128 to 0.008 μg/ml. The diluted agents are dispensed in 100 μl amounts into the wells of a 96-well tray and used immediately or frozen at -10° to -70° C. until needed. Using an automated inoculator, 1.5 μl of a 10^-2 dilution of an overnight culture is added to each well of the tray. The tops of the trays are then sealed using transparent tape and incubated overnight at 37° C. The trays are examined with the aid of a viewer. The lowest concentration at which no growth is observed is considered to be the minimum inhibitory concentration (MIC).

P. mirabilis 90 = settings: Proteus mirabilis, 90, P. mirabilis 90; read-out: MIC
Protocol: as §1

P. mirabilis 503-1136 = settings: Proteus mirabilis, 5031136, P. mirabilis 503-1136; read-out: MIC
Protocol: as §1

S. aureus 1059B = settings: Staphylococcus aureus, read-out: MIC
Protocol: as §1

E. coli 48 = test system: E. coli 48
Protocol: as §1

E. coli R-563 = settings: Escherichia coli
Protocol: as §1

E. cloacae P99 = settings: Enterobacter cloacae, P99, E. cloacae P99
Protocol: as §1

S. schottmuelleri = settings: read-out: MIC
Protocol: as §1

P. mirabilis 620A = settings: Proteus mirabilis, 620A, P. mirabilis 620A; read-out: MIC
Protocol: as §1

P. vulgaris ATCC 6380 = settings: Proteus vulgaris
Protocol: as §1

S. marcescens S2 = settings: Serratia marcescens; S. marcescens S2; read-out: MIC
Protocol: as §1

E. cloacae 5699 = settings: Enterobacter cloacae, 5699, E. cloacae 5699; read-out: MIC
Protocol: as §1

S. marcescens S5 = settings: Serratia marcescens, S5, S. marcescens S5; read-out: MIC
Protocol: as §1

E. coli 4 = test system: E. coli 4
Protocol: as §1

P. vulgaris 101 = settings: Proteus vulgaris, 101, P. vulgaris 101; read-out: MIC
Protocol: as §1

S. marcescens S4 = settings: Serratia marcescens, S4, S. marcescens S4; read-out: MIC
Protocol: as §1

E. cloacae 6951 = settings: Enterobacter cloacae, 6951, E. cloacae 6951; read-out: MIC
Protocol: as §1

S. marcescens S1 = settings: Serratia marcescens, S1, S. marcescens S1; read-out: MIC
Protocol: as §1

P. mirabilis 2 = settings: Proteus mirabilis, 2, P. mirabilis 2; read-out: MIC
Protocol: as §1

E. coli 503-455 = test system: E. coli 503-455
Protocol: as §1

C. freundii 8ASM = settings: Citrobacter freundii, 8ASM, C. freundii 8ASM; read-out: MIC
Protocol: as §1

C. diversus CDC 1663-72 = settings: Citrobacter koseri, CDC166372; C. diversus CDC 1663-72; read-out: MIC
Protocol: as §1

S. aureus Smith = settings: Staphylococcus aureus, S. aureus Smith; read-out: MIC
Protocol: as §1

E. cloacae 24 = settings: Enterobacter cloacae, 24, E. cloacae 24; read-out: MIC
Protocol: as §1

K. pneumoniae 5096 = test system: K. pneumoniae 5096
Protocol: as §1

E. cloacae 214 = settings: Enterobacter cloacae, 214, E. cloacae 214; read-out: MIC
Protocol: as §1

K. pneumoniae 503-994 = settings: Klebsiella pneumoniae, 503994, K. pneumoniae 503-994; read-out: MIC
Protocol: as §1

E. coli 5152 = settings: Escherichia coli, 5152, E. coli 5152; read-out: MIC
Protocol: as §1

E. cloacae 9570A = settings: Enterobacter cloacae, read-out: MIC
Protocol: as §1

E. aerogenes 503-478 = settings: Klebsiella aerogenes, 503478, E. aerogenes 503-478; read-out: MIC
Protocol: as §1

P. vulgaris 100 = settings: Proteus vulgaris; P. vulgaris 100; read-out: MIC
Protocol: as §1

E. aerogenes 8 = test system: E. aerogenes 8
Protocol: as §1

K. pneumoniae 4964 = settings: Klebsiella pneumoniae, 4964, K. pneumoniae 4964; read-out: MIC
Protocol: as §1

P. aeruginosa 503-820 = settings: Pseudomonas aeruginosa, 503820; P. aeruginosa 503-820; read-out: MIC
Protocol: as §1

K. pneumoniae A = settings: Klebsiella pneumoniae, K. pneumoniae A; read-out: MIC
Protocol: as §1

P. aeruginosa 503-56 = settings: Pseudomonas aeruginosa, 50356, P. aeruginosa 503-56; read-out: MIC
Protocol: as §1

S. pneumoniae 6301 = settings: Streptococcus pneumoniae, 6301, S. pneumoniae 6301; read-out: MIC
Protocol: as §1

[1] = Escherichia coli, 48, E. coli 48, read-out: MIC
[2] = ATCC6380, P. vulgaris ATCC 6380, read-out: MIC
[3] = Escherichia coli, 503455, E. coli 503-455, read-out: MIC
[4] = Klebsiella aerogenes, 8, E. aerogenes 8
[5] = Klebsiella pneumoniae, K. pneumoniae 5096, read-out: MIC

Row | SMILES | MIC (C. freundii CDC6) | MIC (P. mirabilis 90) | MIC (P. mirabilis 503-1136) | MIC (S. aureus 1059B) | MIC (E. cloacae P99) | MIC (S. schottmuelleri) | MIC (P. mirabilis 620A) | MIC (S. marcescens S2) | MIC (E. cloacae 5699) | MIC (S. marcescens S5) | MIC (P. vulgaris 101) | MIC (S. marcescens S4) | MIC (E. cloacae 6951) | MIC (S. marcescens S1) | MIC (P. mirabilis 2) | MIC (C. freundii 8ASM) | MIC (C. diversus CDC 1663-72) | MIC (S. aureus Smith) | MIC (E. cloacae 24) | MIC (E. cloacae 214) | further results
1 | CC1(C)S[C@@H]2[C@H](N=CN3CCC(CCCn4ccnc4CO)CC3)C(=O)N2[C@H]1C(=O)O [R, [2S-(2alpha,5alpha,6beta)]-6-[[[4-[3-[2-(hydroxymethyl)-1H-imidazol-1-yl]propyl-1-piperidinyl]methylene]amino]-3,3-dimethyl-7-oxo-4-thia-1-azabicyclo[3.2.0]heptane-2-carboxylic acid hydrochloride 1.1 molar hydrate] | 0.062 µg/mL | 0.5 µg/mL | 4 µg/mL | 64 µg/mL | 0.062 µg/mL | < 0.008 µg/mL | 64 µg/mL | 0.125 µg/mL | 0.062 µg/mL | 1 µg/mL | 1 µg/mL | 0.5 µg/mL | 8 µg/mL | 0.062 µg/mL | 0.25 µg/mL | < 0.008 µg/mL | 0.016 µg/mL | 8 µg/mL | 0.25 µg/mL | 0.5 µg/mL | MIC (E. coli 48; [1]): 0.016 µg/mL; MIC (E. coli R-563; R563): 4 µg/mL; MIC (P. vulgaris ATCC 6380; [2]): < 0.008 µg/mL; MIC (E. coli 4; Escherichia coli, 4): 2 µg/mL; MIC (E. coli 503-455; [3]): 0.5 µg/mL; MIC (K. pneumoniae 5096; Klebsiella pneumoniae, 5096, K. pneumoniae 5096): 8 µg/mL; MIC (K. pneumoniae 503-994): 0.016 µg/mL; MIC (E. coli 5152): 4 µg/mL; MIC (E. cloacae 9570A): 0.062 µg/mL; MIC (E. aerogenes 503-478): 0.5 µg/mL; MIC (P. vulgaris 100): 2 µg/mL; MIC (E. aerogenes 8; [4]): 32 µg/mL; MIC (K. pneumoniae 4964): 0.5 µg/mL; MIC (P. aeruginosa 503-820): 128 µg/mL; MIC (K. pneumoniae A): < 0.008 µg/mL
2 | CN(C)C=Nc1nccn1CCCC1CCN(C=N[C@@H]2C(=O)N3[C@@H]2SC(C)(C)[C@@H]3C(=O)O)CC1 [S, [2S-(2alpha,5alpha,6beta)]-6-[[[4-[3-[2-[[(dimethylamino)methylene]amino]-1H-imidazol-1-yl]propyl]-1-piperidinyl]methylene]amino]-3,3-dimethyl-7-oxo-4-thia-1-azabicyclo[3.2.0]heptane-2-carboxylic acid 1.7 molar hydrochloride 2.6 molar hydrate] | 0.5 µg/mL | 4 µg/mL | 8 µg/mL | 64 µg/mL | 1 µg/mL | 0.25 µg/mL | > 128 µg/mL | 2 µg/mL | 1 µg/mL | 4 µg/mL | 8 µg/mL | 4 µg/mL | 8 µg/mL | 4 µg/mL | 2 µg/mL | 0.125 µg/mL | 0.5 µg/mL | 8 µg/mL | 1 µg/mL | 4 µg/mL | MIC (E. coli 48; Escherichia coli, 48): 0.5 µg/mL; MIC (E. coli R-563; R563): 8 µg/mL; MIC (P. vulgaris ATCC 6380; [2]): 1 µg/mL; MIC (E. coli 4; Escherichia coli, 4): 4 µg/mL; MIC (E. coli 503-455; Escherichia coli, 503455): 1 µg/mL; MIC (P. aeruginosa 503-56): > 128 µg/mL; MIC (K. pneumoniae 5096; [5]): > 128 µg/mL; MIC (K. pneumoniae 503-994): 0.5 µg/mL; MIC (E. coli 5152): 8 µg/mL; MIC (E. cloacae 9570A): 1 µg/mL; MIC (E. aerogenes 503-478): 2 µg/mL; MIC (P. vulgaris 100): 8 µg/mL; MIC (E. aerogenes 8; [4]): 32 µg/mL; MIC (K. pneumoniae 4964): 0.5 µg/mL; MIC (K. pneumoniae A): 0.5 µg/mL
3 | CC1(C)S[C@@H]2[C@H](N=CN3CCCC(c4ncc[nH]4)C3)C(=O)N2[C@H]1C(=O)O (stereo partly drawn) [P, [2S-(2alpha,5alpha,6beta)]-6-[[[3-(1H-imidazol-2-yl)-1-piperidinyl]methylene]amino]-3,3-dimethyl-7-oxo-4-thia-1-azabicyclo[3.2.0]heptane-2-carboxylicacid hydrochloride] | 4 µg/mL | 8 µg/mL | 64 µg/mL | 64 µg/mL | 8 µg/mL | 2 µg/mL | > 128 µg/mL | 8 µg/mL | 8 µg/mL | > 128 µg/mL | 64 µg/mL | > 128 µg/mL | > 128 µg/mL | 8 µg/mL | 8 µg/mL | 2 µg/mL | 2 µg/mL | 2 µg/mL | 8 µg/mL | 8 µg/mL | MIC (S. pneumoniae 6301): 1 µg/mL; MIC (E. coli 48; [1]): 2 µg/mL; MIC (E. coli R-563; R563, E. coli R-563, read-out: MIC): 2 µg/mL; MIC (P. vulgaris ATCC 6380; ATCC6380): 0.5 µg/mL; MIC (E. coli 4; Escherichia coli, 4, E. coli 4, read-out: MIC): 2 µg/mL; MIC (E. coli 503-455; [3]): 64 µg/mL; MIC (K. pneumoniae 5096; [5]): 64 µg/mL; MIC (K. pneumoniae 503-994): 8 µg/mL; MIC (E. coli 5152): > 128 µg/mL; MIC (E. cloacae 9570A): 8 µg/mL; MIC (E. aerogenes 503-478): > 128 µg/mL; MIC (P. vulgaris 100): 128 µg/mL; MIC (E. aerogenes 8; Klebsiella aerogenes, E. aerogenes 8, read-out: MIC): 16 µg/mL; MIC (K. pneumoniae 4964): 64 µg/mL; MIC (K. pneumoniae A): 2 µg/mL
